Results from US20090088376A1, “DENDRIMER BASED COMPOSITIONS AND METHODS OF USING THE SAME” (priority 2007, published 2009).

Experiments:
KB cells = assay: Inhibition of cell growth (XTT assay / total cell protein); assay type: cell-based, human
Procedure: Cell culture and treatment.
Evaluation of dendrimer cytotoxicity. Cell growth was determined by assay of the total protein in lysates of treated cells using a bicinchoninic acid reagent (PIERCE, and by XTT assay, using a kit from Roche.
Because the binding of the conjugate to KB cells reaches maximal uptake within 1 h (Quintana et al, 2002. Pharmaceutical Research 19: 1310-1316.), the effect of the G5-FI-FA-MTX on cell growth was initially tested by pre-incubation of cells with the conjugate for 1 h, followed by incubation in a drug-free medium for 5 d. […] When the cells were pre-incubated with dendrimers for 4 h, there was a modest decrease of about 10% in cell growth as determined by XTT assay. The cytotoxicity measurements were therefore done by incubation with the dendrimer for a minimum of 24 h, a pre-incubation time period shown to induce significant cytotoxicity.
Time course and dose dependent inhibition of cell growth. Previous studies have shown that MTX-induced cytotoxicity is detectable in vitro only if the medium is completely deprived of FA (See, e.g., Sobrero & Bertino, Int. J. Cell Cloning 4, 51 (1986)). The effect of the trifunctional dendrimers on cell growth was tested in cells incubated in a FA-deficient medium. Cells were treated with 300 nM conjugates (equivalent of 1500 nM MTX) or 1500 nM free MTX for 1-4 days, and cell proliferation was determined by estimation of cellular protein content. Cells were treated for 2 days with different concentrations of the conjugates or free MTX (the conjugate concentration is given as MTX equivalents, with 5 MTX per dendrimer molecule). KB cells which express high and low FAR were incubated with 30 nM of the dendrimers for 1 hr at 37° C., rinsed, and the fluorescence of cells was determined by flow cytometric analysis (See. e.g., FIG. 21, left panel). Pre-incubation with 50 µM free FA for 30 min totally prevents cellular binding and uptake of the polymer conjugates (See. e.g., FIG. 21, left panel).
The inhibition of cell growth induced by the conjugates was also tested by XTT assay which is based on the conversion of XTT to formazan by the active mitochondria of live cells (See, e.g., Roehm et al, J Immunol Methods 142, 257 (1991)).

s.c. human KB xenografts = assay: Targeted drug delivery: tumor growth and survival; assay type: in vivo, SCID mice; settings: for effect on tumor growth: first trial
Procedure: Tumor cell line. The KB human cell line, which overexpresses the folate receptor (See, e.g., Turek et al, J Cell Sci 106, 423 (1993)), was purchased from the American Type Tissue Collection (Manassas, Va.) and maintained in vitro at 37° C., 5% CO2 in folate-deficient RPMI 1640 supplemented with penicillin (100 units/mL), streptomycin (100 μg/mL), and 10% heat-inactivated fetal bovine serum. Before injection in the mice, the cells were harvested with trypsin-EDTA solution, washed, and resuspended in PBS. The cell suspension (5×10^6 cells in 0.2 mL) was injected s.c. into one flank of each mouse using a 30-gauge needle. In the biodistribution studies, the tumors were allowed to grow for 2 weeks until reaching ˜0.9 cm^3 in volume. The formula chosen to compute tumor volume was for a standard volume of an ellipsoid, where V=4/3π(½ length×½ width×½ depth). With an assumption that width equals depth and […], the formula used was V=½×length×width^2. Targeted drug delivery using conjugate injections was started on the fourth day after implantation of the KB cells.
Delivery of targeted nanoparticle therapeutic.
Statistical methods. Means, SD, and SE of the data were calculated. Differences between the experimental groups and the control groups were tested using Student's-Newman-Keuls' test and Ps<0.05 were considered significant.
Targeted drug delivery to tumor cells through the folate receptor. The efficacy of different doses of conjugates was tested on SCID CB-17 mice bearing s.c. human KB xenografts and was compared with equivalent and higher doses of free methotrexate. Mice were maintained on the folic acid-deficient diet for 3 weeks before injection of the KB tumor cells to achieve circulating levels of folic acid that approach those in human serum and to prevent down-regulation of folate receptors on tumor xenografts (See, Mathias et al., J Nucl Med 29, 1579 (1998)). Six groups of SCID mice with five mice in each group were injected s.c. on one flank with 5×10^6 KB cells in 0.2 mL PBS suspension. The highest total dose of G5-FI-FA-MTX therapeutic used equals 55.0 mg/kg and is equivalent to a 5.0 mg/kg total cumulative dose of free methotrexate (FIG. 29). The therapeutic dose of the conjugate was compared with three cumulative doses of free methotrexate equivalent to 33.3, 21.7, and 5.0 mg/kg accumulated in 10 to 15 injections based on mouse survival. Saline and the conjugate without methotrexate (G5-FT-FA) were used as controls.

SCC15 cells = assay: XTT cell proliferation assay; assay type: cell-based, human; settings: methotrexate 100 nM, G5-FI-EGF 100 nM, 3 days
Procedure: XTT assay. For cytotoxicity experiments, cells (2500 cells/well) were seeded in 96-well microtiter plates in DMEM containing 10% FCS. The cells were treated either with 100 nM each of the conjugates for 72 h. A calorimetric XTT assay, Roche Molecular Biochemicals (Indianapolis, Ind.) was performed following the vendor's protocol. After incubation with an XTT labeling mixture, microtiter plates were read on an ELISA reader (SYNERGY HT, BIOTEK) at 492 nm with the reference wavelength at 690 nm. Vehicle-treated cells were assigned a value of 100%.

[1] = mouse, in vivo
Procedure: (§1) Twice weekly, SCID mice with s.c. KB xenografts, starting on day 4 after tumor implantation, received via the tail vein an injection of either targeted or nontargeted conjugate containing methotrexate, a conjugate without methotrexate, free methotrexate, or saline as a control. The compounds were delivered in a 0.2 mL volume of saline per 20 g of mouse. The single dose of methotrexate delivered each time equaled 0.33 mg/kg. The higher doses of 1.67 and 3.33 mg/kg free methotrexate were also tested. The conjugates were delivered at equimolar concentration of methotrexate calculated based on the number of methotrexate molecules present in a nanoparticle. The conjugate without methotrexate was delivered at equimolar concentration of dendrimer. In the initial trial, six groups of mice with five mice in each group received up to 15 injections. In the follow-up trial, mice received up to 28 injections dependent on their survival. The body weights of the mice were monitored throughout the experiment as an indication of adverse effects of the drug. Histopathology of multiple organs was done at the termination of each trial and each time mouse had to be euthanized due to toxic effects or tumor burden. Tissues from lung, heart, liver, pancreas, spleen, kidney, and tumor were analyzed.
(§2) At each time point, a gross examination and histopathology of the liver, spleen, kidney, lung, and heart were done.

[2] = Toxicity of dendrimer conjugates and free methotrexate (body weight, histopathology)
Procedure: as §1, §2

Row | Structure (SMILES) | reversal by free FA of growth-arrest caused by MTX (KB cells; 150 nM FA, 150 nM MTX, 24 h then 6 d fresh medium, total cell protein) | increase of cell growth above control cells by excess free FA (KB cells; 50 μM FA with MTX or G5-FITC-FA-MTX 24 h, then 5 days, XTT) [%] | inhibition of cell growth (KB cells; XTT assay, 1, 2 or 3 days) | growth inhibition of free MTX compared with conjugate (KB cells; equimolar MTX, below 1 μM) | effect on tumor growth (s.c. human KB xenografts; cumulative 33.3 and 21.7 mg/kg) | effect on tumor growth (s.c. human KB xenografts; dose equivalent to 5.0 mg/kg cumulative methotrexate (or equimolar dendrimer)) | day of trial by which all mice died (s.c. human KB xenografts; second 99-day trial) [days] | survivors at the termination of the trial (s.c. human KB xenografts; second 99-day trial) | inhibition of cell growth in G5-FI-EGF-treated cells (SCC15 cells) | histopathology of the liver [1] | day of trial by which doses became lethal ([2]; cumulative doses 33.3 and 21.7 mg/kg) [days] | toxicity ([2]; total accumulated dose equivalent to 5.0 mg/kg free methotrexate)
1 | Nc1nc2ncc(CNc3ccc(C(=O)N[C@@H](CCC(=O)O)C(=O)O)cc3)nc2c(=O)[nH]1 [FA, folic acid] | almost completely reversed | 20 |  |  |  |  |  |  |  |  |  | 
2 | CN(Cc1cnc2nc(N)nc(N)c2n1)c1ccc(C(=O)N[C@@H](CCC(=O)O)C(=O)O)cc1 [MTX, methotrexate] |  |  | time-dependent cytotoxicity | higher than with the equimolar concentrations of MTX in the G5-FITC-FA-MTX | affecting tumor growth | no effect on tumor growth | ≤ 66 | no mice surviving | inhibited cell growth in the G5-FI-EGF-treated cells to a greater extent than its inhibition of control cells | advanced liver lesions, collections of inflammatory cells, and periportal inflammation | 32 to 36 | nor free methotrexate at the same dose were toxic
